The structures appear in SMILES notation.

The experiment relates to CSM14.1 cells, thapsigargin-induced p-p38/p38 MSD ELISA. Nature of the experiment: inhibition of thapsigargin-induced p38 phosphorylation, dose response, mechanism study for ER stress apoptosis inhibitor project, MSD ELISA, CSM14.1 cells (AID 1391). As to conditions: at 10 µM (top of the series). (In general: An ELISA detects its analyte on a solid surface through an enzyme-linked reagent.)

As for `COc1ccc(C2CC(=O)C3=C(C2)Nc2ccccc2NC3c2cccc(Oc3ccccc3)c2)cc1OC` (configuration not stated), the p-p38/p38 ratio, lower = inhibition is 1.86.
For the compound `CC1(C)CC(=O)C2=C(C1)Nc1ccccc1NC2c1ccc(-c2ccccc2)cc1` (configuration not stated), the p-p38/p38 ratio, lower = inhibition is 1.47.
